Results on 78 compounds are retold here after PubChem BioAssay AID1645861 (Buhrlage Lab, Dana-Farber Cancer Institute and Novartis …, 2021).

This test has as its target Ubiquitin carboxyl-terminal hydrolase 7 (Homo sapiens) (UniProt Q93009). Nature of the test: Biochemical concentration-response for ubiquitin-specific peptidase 7 DUB inhibitors, verifying primary hits (AID 1645861). The settings on record: purified USP7, Ub-rhodamine cleavage fluorescence, 60 min.

The source made the active and inactive calls.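 Rule for the calls: active = compounds whose peak USP7 inhibition across the dose series reached 30% or more; inactive = the rest.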

Ubiquitin carboxyl-terminal hydrolase 7 (Homo sapiens), sequence (Q93009 whole entry, looked up): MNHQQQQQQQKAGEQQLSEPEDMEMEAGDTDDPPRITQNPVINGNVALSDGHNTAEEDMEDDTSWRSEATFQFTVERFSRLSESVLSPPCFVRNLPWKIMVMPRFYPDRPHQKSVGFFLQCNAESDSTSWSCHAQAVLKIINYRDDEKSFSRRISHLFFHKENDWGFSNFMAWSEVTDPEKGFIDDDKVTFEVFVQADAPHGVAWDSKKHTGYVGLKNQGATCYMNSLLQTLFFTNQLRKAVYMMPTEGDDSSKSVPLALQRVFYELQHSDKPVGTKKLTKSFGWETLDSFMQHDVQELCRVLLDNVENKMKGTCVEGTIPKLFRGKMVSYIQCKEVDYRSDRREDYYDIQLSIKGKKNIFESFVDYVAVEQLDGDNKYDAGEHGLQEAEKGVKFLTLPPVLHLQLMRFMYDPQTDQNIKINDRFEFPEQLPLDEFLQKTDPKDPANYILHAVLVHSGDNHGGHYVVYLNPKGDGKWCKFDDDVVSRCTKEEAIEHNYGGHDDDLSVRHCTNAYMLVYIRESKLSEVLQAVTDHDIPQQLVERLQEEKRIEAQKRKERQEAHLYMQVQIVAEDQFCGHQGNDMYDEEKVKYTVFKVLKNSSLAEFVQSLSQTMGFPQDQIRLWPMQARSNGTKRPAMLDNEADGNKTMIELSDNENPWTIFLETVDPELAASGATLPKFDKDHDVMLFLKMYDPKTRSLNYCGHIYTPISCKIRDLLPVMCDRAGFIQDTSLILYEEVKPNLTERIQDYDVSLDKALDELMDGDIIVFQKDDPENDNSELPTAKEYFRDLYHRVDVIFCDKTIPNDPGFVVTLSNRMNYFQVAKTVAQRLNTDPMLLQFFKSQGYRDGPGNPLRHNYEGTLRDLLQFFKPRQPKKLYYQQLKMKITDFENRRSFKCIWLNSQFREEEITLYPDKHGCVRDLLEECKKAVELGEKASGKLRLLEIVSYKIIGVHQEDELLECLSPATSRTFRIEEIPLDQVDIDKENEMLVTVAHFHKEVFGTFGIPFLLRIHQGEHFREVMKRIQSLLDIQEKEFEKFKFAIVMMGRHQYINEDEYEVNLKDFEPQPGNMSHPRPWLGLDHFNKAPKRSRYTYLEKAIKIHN

Regarding `Cc1ccc(Nc2nc(O)c(CC(=O)Nc3cccc(Cl)c3C)s2)cc1C`, the IC50 is > 50 µM (inactive). Under `O=C1c2ccccc2C(=O)c2c(O)c(O)cc(O)c21` stands 45.6 µM. With `Cc1ccc2c(c1)c(=O)c(C(=O)c1ccccc1)cn2CC(=O)Nc1ccccc1` the figure was > 50 µM (inactive); with `COc1cccc2cc(C(=O)Nc3nc(-c4ccncc4)cs3)oc12`, 18.3 µM; with `COc1ccc(-c2nc(Cn3nnc(C(=O)Nc4ccc(C)c(C)c4)c3N)c(C)o2)cc1`, > 50 µM (inactive). Under `COc1ccccc1-c1nc(-c2cn(-c3ccc(F)cc3)nn2)no1` stands 43.9 µM; under `Cc1ccc2[nH]c3c(=O)n(Cc4ccc(N(C)C)cc4)cnc3c2c1`, > 50 µM (inactive). Regarding `CCc1nc(SCC(=O)Nc2ccc(C)cc2C)c2oc3ccccc3c2n1`, the IC50 was > 50 µM (inactive).

As for `Cc1cccc(Cl)c1NC(=O)Nc1ccc(NC(=O)c2ccccc2O)cc1`, the IC50 is > 50 µM (inactive). In the case of `COc1ccccc1N1CCN(C(=O)c2ccc3c(=O)n(CCc4ccccc4)c(=O)[nH]c3c2)CC1`, the IC50 was > 50 µM (inactive).

As for `COc1ccc(OCCn2c(C3CC(=O)N(c4cccc(C)c4)C3)nc3ccccc32)cc1` (stereo not drawn), the IC50 was > 50 µM (inactive). With `CCCCCCCCCCCCCCCc1cc(O)cc(O)c1C(=O)O` the figure was 30.7 µM. On to `COc1ccccc1-c1nc(-c2cn(-c3cccc(Cl)c3)nn2)no1`, for which the IC50 was 28.9 µM. With `COc1cc(Cl)c(C)cc1NC(=O)Cn1c(=O)n(CC(=O)NCc2ccco2)c(=O)c2ccccc21` the figure was > 50 µM (inactive); with `CC[C@@H](C(=O)[C@@H](C)[C@@H](O)[C@H](C)CCc1ccc(C)c(O)c1C(=O)O)[C@@H]1O[C@](CC)([C@H]2CC[C@](O)(CC)[C@H](C)O2)C[C@@H]1C`, 28.6 µM; with `COC(=O)c1ccc(Nc2cc(C)nc3cc(C(F)(F)F)ccc23)cc1`, > 50 µM (inactive). On to `O=C(Cn1c(=O)c2ccccc2n(CC(=O)Nc2cccc(F)c2)c1=O)NCCc1ccccc1`, for which the IC50 is > 50 µM (inactive). Under `COc1ccc(C2/C(=C(\O)c3ccccc3)C(=O)C(=O)N2c2nc3ccc(F)cc3s2)cc1` (stereo not drawn) stands 23.7 µM. With `O=C(Nc1cc(F)c2nc(N3CCOCC3)ccc2c1)C1CC1` the figure was > 50 µM (inactive); with `CCOC(=O)c1ccc(NC(=O)Cn2c(=O)n(CC(=O)NCc3ccco3)c(=O)c3ccccc32)cc1`, > 50 µM (inactive). Under `COc1cccc(NC(=O)C(Sc2cccc(NC(=O)c3ccccc3F)c2)c2ccccc2)c1` (stereo not drawn) stands > 50 µM (inactive). In the case of `CCOc1ccc2c(c1)c(=O)c(C(=O)c1ccccc1)cn2CC(=O)Nc1ccc(Cl)cc1`, the IC50 was 41.6 µM. Under `O=C(COc1ccc(N2CC(C(=O)NCc3ccc4c(c3)OCO4)CC2=O)cc1)Nc1ccc(F)cc1` (stereo not drawn) stands > 50 µM (inactive). In the case of `CCCCCCCC1OC(=O)Cc2cc(O)c(O)c(O)c21` (stereo not drawn), the IC50 was > 50 µM (inactive). For the compound `Cc1ccnc(Nc2nc(-c3ccccc3)c3cc(Cl)ccc3n2)n1`, the IC50 was 38.5 µM. With `O=C(Cc1ccc(-n2c(=O)c3ccccc3n(CC(=O)Nc3ccc(Cl)cc3Cl)c2=O)cc1)NCc1ccco1` the figure was > 50 µM (inactive); with `CC1=C(Cn2c3cccc(=O)c-3nc3ccccc32)CCC(C)(C)C1`, > 50 µM (inactive). Take `Cn1c2ccccc2c(=O)c2c(=O)n(-c3cccc(Cl)c3)c(-c3cccs3)nc21`: the IC50 was 35.1 µM. With `O=C(Cn1cc(C(=O)C(F)(F)F)c2cc(Br)ccc21)N1CCc2ccccc21` the figure was > 50 µM (inactive); with `COc1cc(Cl)c(NC(=O)C2Cc3ccccc3N2C(=O)c2ccccc2)c(OC)c1` (stereo not drawn), > 50 µM (inactive).

For `O=C(CCn1c(=O)c2ccccc2n(CC(=O)OCc2ccccc2)c1=O)NCc1ccc2c(c1)OCO2`, the IC50 was > 50 µM (inactive). On to `CCn1cc2c(n1)c(=O)n(Cc1ccccc1)c(=O)n2CC(=O)Nc1ccc(C(C)C)cc1`, for which the IC50 was > 50 µM (inactive). Under `CCN(CC)Cc1ccc(-c2nnc(-c3cnc4onc(C)c4c3)o2)o1` stands > 50 µM (inactive). `COc1cc2c(cc1OC)-c1cc(Nc3ccc(Br)cc3)nc(=O)n1CC2`: the IC50 is > 50 µM (inactive). In the case of `C=C1C=C(CCC(=O)O)C(=O)OC1/C=C/C=C/C` (stereo not drawn), the IC50 is 18.2 µM. Under `O=C(Nc1ccccc1C(=O)O)c1ccc(CSCc2ccccc2)cc1` stands > 50 µM (inactive); under `CCc1nc(SCC(=O)Nc2cc(Cl)ccc2C)c2oc3ccccc3c2n1`, > 50 µM (inactive); under `CSC1SCC2C(=O)N(C)C(C(C)C(C)C)C(=O)OCC(NC(=O)c3cnc4ccccc4n3)C(=O)NC(C)C(=O)N(C)C1C(=O)N(C)C(C(C)C(C)C)C(=O)OCC(NC(=O)c1cnc3ccccc3n1)C(=O)NC(C)C(=O)N2C` (stereo not drawn), > 50 µM (inactive). With `COc1ccc(S(=O)(=O)N2CCc3ccccc32)cc1C(=O)Nc1ccc2[nH]c(=O)[nH]c2c1`, the IC50 was > 50 µM (inactive).

Take `CC(C)=CCC(O)C1=CC(=O)c2c(O)ccc(O)c2C1=O` (stereo not drawn): the IC50 was 9.02 µM.

As for `Cc1cc(=O)n(CC(=O)Nc2ccccc2C)c(Nc2ccc(F)cc2)n1`, the IC50 was > 50 µM (inactive). With `Cc1nnc(NC(=O)C2CCN(c3ccc(S(N)(=O)=O)cc3[N+](=O)[O-])CC2)o1` the figure was 49.4 µM; with `CCOc1ccc2c(c1)c(=O)c(C(=O)c1ccc(C)cc1)cn2CC(=O)Nc1ccc(C)cc1`, > 50 µM (inactive). As for `O=C(c1cnc2[nH][nH]c(=O)c2c1)c1cc(Cl)cc(Cl)c1O`, the IC50 is 15.1 µM. With `CCCCCCCCCC(CCCCCCCCCC(=O)O)O[C@H]1O[C@@H](COC(C)=O)[C@H](O)[C@@H](OC(=O)CC(=O)O)[C@H]1O` (stereo partly drawn) the figure was > 50 µM (inactive).

As for `O=C(Nc1cccc(Cl)c1)c1ncn2c1CNS(=O)(=O)c1ccccc1-2`, the IC50 was > 50 µM (inactive). For the compound `Cc1ccc(-n2cc(C(=O)NCCCc3ccccc3)nn2)cc1`, the IC50 is > 50 µM (inactive).

As for `O=C1CC(O)C(C2=CC(=O)c3c(O)cccc3C2=O)O1` (stereo not drawn), the IC50 is 32.9 µM. Under `CC(C)c1ccc(NC(=O)COC(=O)c2ccc(NS(=O)(=O)c3ccc4c(c3)OCCO4)cc2)cc1` stands > 50 µM (inactive); under `Cc1ccc2nc(CNc3ccc(F)cc3C)cc(=O)n2c1`, > 50 µM (inactive); under `CC(C)CCCCCCCCCCC(=O)N(C)[C@H](CO)C(=O)N[C@H](C)C(=O)NCC(=O)N(C)C1C(=O)N[C@@H](C)C(=O)NC(C(=O)O)Cc2ccc(O)c(c2)-c2cc1ccc2O` (stereo partly drawn), > 50 µM (inactive). Under `CC(NC(=O)c1ccccc1)c1nc2ccccc2n1CC(=O)Nc1ccc(OC(F)(F)F)cc1` (stereo not drawn) stands > 50 µM (inactive). Under `COc1cc2c(=O)n(CC3CCCO3)c(=O)n(CC(=O)c3ccc4c(c3)OCO4)c2cc1OC` (stereo not drawn) stands > 50 µM (inactive); under `CN(C)[C@H]1C(=O)C(C(N)=O)=C(O)C2(O)C(=O)C3=C(O)c4c(O)cccc4C(C)(O)C3C(O)C12` (stereo partly drawn), 34.1 µM.

As for `CC1(C)Cc2c(c(-c3ccco3)nc3sc4c(SCCCc5ccccc5)ncnc4c23)CO1`, the IC50 was > 50 µM (inactive). On to `COCCn1c(=O)[nH]c2cc(C(=O)NCCNc3ccc([N+](=O)[O-])cc3C#N)ccc2c1=O`, for which the IC50 is > 50 µM (inactive). On to `Cc1ccc(CNC(=O)Cn2c(=O)n(CCCC(=O)NCc3ccc(F)cc3)c(=O)c3ccccc32)cc1`, for which the IC50 was > 50 µM (inactive).

Take `COc1ccc(Cl)cc1NC(=O)COC(=O)c1cc2ccccc2oc1=O`: the IC50 is > 50 µM (inactive). Consider `O=C(CCc1ccc(S(=O)(=O)N2CCOCC2)cc1)OCC(=O)c1ccc(-c2ccccc2)cc1`, for which the IC50 was > 50 µM (inactive). With `O=C(Cn1c(=O)c2ccccc2n(CC(=O)Nc2ccc(Br)cc2)c1=O)NCc1ccco1` the figure was > 50 µM (inactive); with `Cc1cc(O)c2c3c(c(O)cc2c1)C(=O)c1c(O)cccc1C3=O`, 19.5 µM; with `COc1ccc(NC(=O)Cn2cc(C(=O)c3ccc(Cl)cc3)c(=O)c3cc(F)ccc32)cc1`, 47 µM. Take `Cc1[nH]nc(NC(=O)C2COc3ccccc3O2)c1-c1ccccc1` (stereo not drawn): the IC50 is > 50 µM (inactive). Regarding `CCCCCCCCCCCC1=C(O)C(=O)C=C(O)C1=O`, the IC50 was 14.7 µM. As for `Cc1ccc(Cn2cc(C(=O)Nc3ccccc3C(N)=O)ccc2=O)cc1`, the IC50 was > 50 µM (inactive). Under `CCOc1ccc(-n2c(=O)c3sccc3n(CC(=O)Nc3cccc(C)c3)c2=O)cc1` stands > 50 µM (inactive); under `COc1ccc(NC(=O)Cn2c(=O)n(CCC(=O)NCc3ccccc3)c(=O)c3sccc32)cc1Cl`, > 50 µM (inactive); under `Cc1cc(NC(=O)c2cc(-c3cccnc3)n[nH]2)ccc1Br`, 48.6 µM. Under `Cc1cccc2nc(CSc3nc4ccc([N+](=O)[O-])cc4[nH]3)cn12` stands > 50 µM (inactive); under `Cc1ccc(NC(=O)Nc2ccc(C)n(CC(=O)Nc3ccc(C)cc3C)c2=O)cc1`, 40.2 µM; under `COc1ccc(-c2cc(-c3ccc(F)cc3)[nH]c(=O)c2C#N)cc1`, > 50 µM (inactive). Turning to `O=C(NCc1ccc(F)cc1)c1cccc(Nc2nc3ccccc3n3cnnc23)c1`, the IC50 is > 50 µM (inactive). With `COc1ccc(NS(=O)(=O)c2cc(NC(=O)CC(=O)c3ccc([N+](=O)[O-])cc3)ccc2Cl)cc1` the figure was > 50 µM (inactive); with `Cc1ccc(-n2cc(-c3noc(C(=O)Nc4ccc(F)cc4C)n3)nn2)cc1`, > 50 µM (inactive); with `O=C1c2c(O)c(Cl)cc3c2[C@@]2(Oc4ccc(O)c5c4[C@]3(O2)[C@@H]2O[C@@H]2C5=O)[C@@H]2O[C@H]12`, 16.3 µM.

Turning to `COc1cc2cc3c(c(O)c2c(O)c1-c1c(OC)cc2cc4c(c(O)c2c1O)C(=O)OC1CC(C)OC41)C(=O)OC1CC(C)OC31` (stereo not drawn), the IC50 was > 50 µM (inactive). Under `COC(=O)c1ccccc1NC(=O)Cn1c(=O)n(Cc2ccc(C(=O)NCc3ccco3)cc2)c(=O)c2ccccc21` stands > 50 µM (inactive); under `COC(=O)C1=CC(OC)=C(Cl)C(=O)C12OC(=O)c1c(O)cc(C)cc1O2` (stereo not drawn), > 50 µM (inactive).

In general, IC50 refers to the concentration that inhibits the measured activity by half.
